From publication PMC11129182, “Development of Inhibitors, Probes, and PROTAC Provides a Complete Toolbox to Study PARK7 in the Living Cell” (Journal of Medicinal Chemistry, 2024)
Where two headings read alike, the source gives them in different places. Residues, ends and D or L forms follow the SMILES beside them. *: point of attachment. Cbz = O=C(OCc1ccccc1)*

Legend:
[1] = molecular target: T1, PARK7 (Homo sapiens, UniProt Q99497); assay: High-throughput screen of the crude compound library, PARK7 fluorescence polarization (FP) assay with FP reagent JYQ-107; assay type: biochemical; settings: for inhibition at 1.25 µM: crude compound library, read-out: HTS FP assay %Inhibition (1.25 µM)
T1 sequence (Q99497 1-189): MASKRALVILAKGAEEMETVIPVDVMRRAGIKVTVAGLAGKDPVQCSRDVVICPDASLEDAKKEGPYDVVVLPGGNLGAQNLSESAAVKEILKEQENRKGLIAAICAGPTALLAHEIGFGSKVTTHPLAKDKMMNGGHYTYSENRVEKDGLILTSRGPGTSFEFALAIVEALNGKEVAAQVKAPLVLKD

[2] = molecular target: T1, PARK7; assay: Hit validation and pure-compound testing in the PARK7 FP assay with JYQ-107; assay type: biochemical; settings: for inhibition at 0.25 µM: read-out: % Inhibition 0.25 µM
[3] = molecular target: T1, PARK7; assay: Activity evaluation of PROTACs in cells (PARK7 degradation, immunoblot); settings: A549 cells; for effect of pretreatment on JYQ-194-induced PARK7 degradation: pretreatment 4 h (5 μM pomalidomide, 5 μM JYQ-173 or 10 μM MG-132), then JYQ-194 5 μM 8 h
Method: A549 cells were seeded into 6-well plates. The next day after seeding, cells were incubated with the indicated concentrations of indicated PROTACs for 8 h. The cells were then washed with PBS and collected. The collected cell pellets were lysed with Tris-triton buffer as described above. The prepared cell lysate of each sample (10 μL) was added 5 μL 3× LDS + 5% β-mercaptoethanol, and boiled for 10 min.

[4] = molecular target: T1, PARK7; assay: biochemical; set-up: Fluorescence polarization competition: residual PARK7 labelling by JYQ-107 probe after 1 h preincubation, % inhibition; settings: sheet Validation pure compounds
Method: The 15 pure compounds from the two different approaches (5 compounds from structure modification and 10 compounds from HTS) were assessed for their potency to inhibit PARK7 at 0.25 and 1 μM final concentrations using the FP assay (Figure 2A). […] Fifty four compounds showing inhibition above 90% were picked and checked at three different concentrations. Using a Labcyte Echo550 acoustic dispenser, 20, 10, and 5 nL of 1 mM compound stock solutions were transferred from the source plates into an empty 384-well plate to obtain 1, 0.5, 0.25 μM final concentrations. […] The relative loss of FP signal compared with reference controls (5 mM NEM, 100% inhibition, and DMSO, 0% inhibition) was used to calculate the remaining enzyme activity. The inhibition percentage of these 54 compounds was plotted as heatmaps using Graphpad Prism 9.0.1 software. […] Stock solutions of 0.26 μM PARK7 and 80 nM JYQ-107 were prepared. Using a Labcyte Echo550 acoustic dispenser, 10 nL of 1 mM DMSO stock solutions of the library compounds was transferred from the source plates into the empty 1536-well screening plates to obtain a 1.25 μM final compound concentration. Next, PARK7 (6 μL, final concentration 0.2 μM) was dispensed using a Biotek MultiflowFX [compound left out] dispenser and incubated for 2 h, followed by dispensing the probe JYQ-107 (2 μL, final concentration 20 nM). […] The percentage inhibition of each compound was calculated from the FP values, normalized to the positive (5 mM N-ethylmaleimide, 100% inhibition) and negative (DMSO, 0% inhibition) controls.

[5] = crude compounds, 0.5 µM, read-out: % Inhibition 0.5 µM

| Structure (SMILES) | inhibition at 1.25 µM [1] | inhibition at 0.25 µM ([2]; crude compounds, 0.25 µM) | inhibition at 0.5 µM [2, 5] | inhibition at 1 µM ([2]; crude compounds) | other results |
| --- | --- | --- | --- | --- | --- |
| N#CN1CC[C@@H](C(=O)Nc2nc3c(s2)CN(C(=O)C2CN(S(=O)(=O)C4CC4)C2)CC3)C1 [Compound 174] | 91.8% | 35% | 63.1% | 87.7% | – |
| Cc1ccc([C@@H]2C[C@H]2C(=O)N2CCc3nc(NC(=O)[C@@H]4CCN(C#N)C4)sc3C2)s1 [Compound 188] | 94.2% | 53.3% | 79% | 94.5% | – |
| N#CN1CC[C@@H](C(=O)Nc2nc3c(s2)CN(C(=O)c2cnn(-c4ccc(Br)cc4)c2)CC3)C1 [Compound 219] | 96.4% | 65.1% | 87.4% | 96.7% | – |
| COc1ccc(C(=O)N2CCc3nc(NC(=O)[C@@H]4CCN(C#N)C4)sc3C2)cc1S(=O)(=O)NCCCN1CCOCC1 [Compound 242] | 89.2% | 46.8% | 71.2% | 91.4% | – |
| N#CN1CC[C@@H](C(=O)Nc2nc3c(s2)CN(C(=O)c2ccc(-c4ccccn4)s2)CC3)C1 [Compound 258] | 89.2% | 44.4% | 72.9% | 91% | – |
| N#CN1CC[C@@H](C(=O)Nc2nc3c(s2)CN(C(=O)c2cnn(-c4ccccc4)n2)CC3)C1 [Compound 295] | 89.6% | 38.6% | 65.4% | 88% | – |
| CN(CC1CC1)c1ccc(C(F)(F)F)cc1C(=O)N1CCc2nc(NC(=O)[C@@H]3CCN(C#N)C3)sc2C1 [Compound 304] | 93.7% | 50.5% | 73.9% | 93.7% | – |
| N#CN1CC[C@@H](C(=O)Nc2nc3c(s2)CN(C(=O)c2coc(C#Cc4ccccc4)c2)CC3)C1 [Compound 311] | 90.8% | 18.8% | 50.2% | 83.4% | – |
| N#CN1CC[C@@H](C(=O)Nc2nc3c(s2)CN(C(=O)c2cccnc2Oc2ccccc2Br)CC3)C1 [Compound 313] | 94.5% | 63% | 81.5% | 94.7% | – |
| Cc1c[nH]c(=O)n1-c1cccc(C(=O)N2CCc3nc(NC(=O)[C@@H]4CCN(C#N)C4)sc3C2)c1 [Compound 315] | 90% | 44% | 66.5% | 91.2% | – |
| N#CN1CC[C@@H](C(=O)Nc2nc3c(s2)CN(C(=O)CCn2nc(C(F)(F)F)cc2C2CC2)CC3)C1 [Compound 333] | 93.5% | 57.5% | 79.2% | 94.5% | – |
| N#CN1CC[C@@H](C(=O)Nc2nc3c(s2)CN(C(=O)c2ccc(=O)n(C4CC4)c2)CC3)C1 [Compound 369] | – | 60.5% | 81% | 94.1% | inhibition at 1.25 µM ([1]; FP reagent JYQ-107): 89.2% |
| N#CN1CC[C@@H](C(=O)Nc2nc3c(s2)CN(C(=O)c2cccc(S(=O)(=O)N4CCN(C(=O)Cn5cc(COCCOCCNc6cccc7c6C(=O)N(C6CCC(=O)NC6=O)C7=O)nn5)CC4)c2)CC3)C1 (stereo partly shown) [JYQ-187] | – | – | – | – | PARK7 degradation ([3]; 8 h): No degradation of PARK7 was observed |
| N#CN1CC[C@@H](C(=O)Nc2nc3c(s2)CN(C(=O)c2cccc(S(=O)(=O)N4CCN(C(=O)Cn5cc(COCCOCCOCCNc6cccc7c6C(=O)N(C6CCC(=O)NC6=O)C7=O)nn5)CC4)c2)CC3)C1 (stereo partly shown) [JYQ-188] | – | – | – | – | PARK7 degradation ([3]; 8 h): No degradation of PARK7 was observed |
| N#CN1CC[C@@H](C(=O)Nc2nc3c(s2)CN(C(=O)c2cc(-n4cc(COCCOCCOCCNc5cccc6c5C(=O)N(C5CCC(=O)NC5=O)C6=O)nn4)ccc2F)CC3)C1 (stereo partly shown) [JYQ-195] | – | – | – | – | concentration at which PARK7 degradation starts ([3]; 0.1 to 5 μM, 8 h): 2 µM |
| CC(C)C[C@@H](C=O)NC(=O)[C@H](CC(C)C)NC(=O)[C@H](CC(C)C)NC(=O)OCc1ccccc1 [MG-132, reference compound] (Cbz-Leu-Leu-Leu-aldehyde) | – | – | – | – | effect of pretreatment on JYQ-194-induced PARK7 degradation [3]: abolished |
| N#CN1CC[C@@H](C(=O)Nc2nc3c(s2)CN(C(=O)c2cccc(O)c2)CC3)C1 [compound 3] | – | – | – | – | inhibition at 0.25 µM [4]: 58.4%; inhibition at 1 µM [4]: 90.1% |
| N#CN1CC[C@@H](C(=O)Nc2nc3c(s2)CN(C(=O)c2cccc(S(=O)(=O)NCC4CCCO4)c2)CC3)C1 (stereo partly shown) [compound 55] | – | – | – | – | inhibition at 0.25 µM [4]: 64.7%; inhibition at 1 µM [4]: 93.5% |
| N#CN1CC[C@@H](C(=O)Nc2nc3c(s2)CNCC3)C1 [cyanimide amine precursor, (R)-1-cyano-N-(4,5,6,7-tetrahydrothiazolo[5,4-c]pyridin-2-yl)pyrrolidine-3-carboxamide] | – | – | – | – | inhibition at 1 µM ([1]; read-out: % inhibition in HTS): ~40%; inhibition at 0.25 µM [2]: 3%; inhibition at 0.5 µM ([2]; read-out: % inhibition 0.5 μM): 20% |
| Nc1cccc2c1C(=O)N(C1CCC(=O)NC1=O)C2=O (stereo not shown) [pomalidomide, reference compound] | – | – | – | – | effect of pretreatment on JYQ-194-induced PARK7 degradation [3]: abolished |

The next lines start with results.

| inhibition at 1.25 µM [1] | inhibition at 0.25 µM ([2]; crude compounds, 0.25 µM) | inhibition at 0.5 µM [2, 5] | inhibition at 1 µM ([2]; crude compounds) | Structure (SMILES) | other results |
| --- | --- | --- | --- | --- | --- |
| 95.6% | 65.4% | 85.8% | 95% | N#CN1CC[C@@H](C(=O)Nc2nc3c(s2)CN(C(=O)c2ccc(Cl)c(N4CCCS4(=O)=O)c2)CC3)C1 [Compound 197] | – |
| 91.5% | 52.1% | 78.4% | 93.3% | N#CN1CC[C@@H](C(=O)Nc2nc3c(s2)CN(C(=O)c2cccc(Cn4ccnc4)c2)CC3)C1 [Compound 215] | – |
| 78.9% | 55.5% | 85.4% | 94.3% | N#CN1CC[C@@H](C(=O)Nc2nc3c(s2)CN(C(=O)Cc2cnn(-c4ccccc4)n2)CC3)C1 [Compound 217] | – |
| 89.7% | 33.9% | 63.1% | 82.8% | N#CN1CC[C@@H](C(=O)Nc2nc3c(s2)CN(C(=O)c2ccc(Oc4cccc(Cl)c4)cn2)CC3)C1 [Compound 268] | – |
| 92.9% | 44.5% | 71.4% | 91.8% | N#CN1CC[C@@H](C(=O)Nc2nc3c(s2)CN(C(=O)c2ccc(-c4ccccn4)nc2)CC3)C1 [Compound 274] | – |
| 94.2% | 82.4% | 96.1% | 96.8% | N#CN1CC[C@@H](C(=O)Nc2nc3c(s2)CN(C(=O)c2cc(-n4cccc4)ccn2)CC3)C1 [Compound 279] | – |
| 97.5% | 48.1% | 76% | 93% | COc1ccccc1-c1cc(C(=O)N2CCc3nc(NC(=O)[C@@H]4CCN(C#N)C4)sc3C2)n[nH]1 [Compound 293] | – |
| 92.1% | 34.1% | 62.9% | 89.5% | N#CN1CC[C@@H](C(=O)Nc2nc3c(s2)CN(C(=O)c2cccc(Oc4ccc(Cl)cc4)n2)CC3)C1 [Compound 312] | – |
| 98.2% | 43.8% | 75.1% | 93% | N#CN1CC[C@@H](C(=O)Nc2nc3c(s2)CN(C(=O)c2cnn(-c4ccc(C(F)(F)F)cc4)c2)CC3)C1 [Compound 314] | – |
| 89.6% | 51.5% | 72.7% | 92.5% | Cn1cc(-c2cc(C(=O)N3CCc4nc(NC(=O)[C@@H]5CCN(C#N)C5)sc4C3)n[nH]2)cn1 [Compound 337] | – |
| – | 63.1% | 85% | 95% | N#CN1CC[C@@H](C(=O)Nc2nc3c(s2)CN(C(=O)c2cccnc2Oc2ccc(Cl)cc2Cl)CC3)C1 [Compound 345] | inhibition at 1.25 µM ([1]; FP reagent JYQ-107): 92.1% |
| – | 64.1% | 84.8% | 97.7% | N#CN1CC[C@@H](C(=O)Nc2nc3c(s2)CN(C(=O)c2cccc(-c4ncon4)c2)CC3)C1 [Compound 381] | inhibition at 1.25 µM ([1]; FP reagent JYQ-107): 93.4% |
| – | 57.7% | 79.9% | 95.9% | CC1CCCCN1S(=O)(=O)c1ccccc1C(=O)N1CCc2nc(NC(=O)[C@@H]3CCN(C#N)C3)sc2C1 (stereo partly shown) [Compound 386] | inhibition at 1.25 µM ([1]; FP reagent JYQ-107): 94.5% |
